Test results taken from US12662478B2, “ATF6 modulators and uses thereof” (Altos Labs, Inc., priority 2019, dated 2026).

Molecular target: T1, ATF6 (Homo sapiens, UniProt P18850)
T1 construct: endogenous in cells; host or cells: U2-OS (ATCC HTB-96) stably transduced with the Cignal Lenti ATF6 luc reporter (Qiagen #CLS-6031L)
T1 sequence (P18850 1-670): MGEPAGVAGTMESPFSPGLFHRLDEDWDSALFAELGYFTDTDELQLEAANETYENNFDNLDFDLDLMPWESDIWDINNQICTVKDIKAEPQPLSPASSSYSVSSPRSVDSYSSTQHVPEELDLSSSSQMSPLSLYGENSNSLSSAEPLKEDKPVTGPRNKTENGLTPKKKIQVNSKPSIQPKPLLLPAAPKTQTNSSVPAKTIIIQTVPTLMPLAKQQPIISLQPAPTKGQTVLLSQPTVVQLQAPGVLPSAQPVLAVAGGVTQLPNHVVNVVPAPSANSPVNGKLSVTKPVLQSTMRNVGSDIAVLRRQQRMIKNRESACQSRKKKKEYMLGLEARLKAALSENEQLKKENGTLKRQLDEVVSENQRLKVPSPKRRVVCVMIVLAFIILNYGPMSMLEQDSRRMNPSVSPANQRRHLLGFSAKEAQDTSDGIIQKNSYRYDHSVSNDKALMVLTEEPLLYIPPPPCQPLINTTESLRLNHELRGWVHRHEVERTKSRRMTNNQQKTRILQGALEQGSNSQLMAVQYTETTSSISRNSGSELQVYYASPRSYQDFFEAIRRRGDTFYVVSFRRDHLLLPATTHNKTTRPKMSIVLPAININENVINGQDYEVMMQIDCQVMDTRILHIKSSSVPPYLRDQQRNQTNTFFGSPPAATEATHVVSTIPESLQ
Assay: ERSE ATF6-luciferase assay in presence of Tg-induced ER stress (U2-OS ATF6 TRE-luciferase reporter cells)
Type: cell-based
Conditions: in presence of ER stress (thapsigargin), Tg only = 100%; for ATF6 activity @ 1 μM [%] / activity at 1 µM: 1 μM test compound; for ATF6 activity @ 1 μM [%] / ATF6 activity @ 10 μM [%]: 8 hr; for ATF6 activity @ 10 μM [%] / activity at 10 µM: 10 μM test compound; for activity at 1 µM / activity at 10 µM: U2OS, 8 h
Protocol: To understand how exemplary compounds of the invention modulate the activity of ATF6 in absence or presence of endoplasmic reticulum (ER) stress, a Human bone osteosarcoma (U2-OS)-based TRE-luciferase reporter stable cell line was generated to determine the modulation of transcription of ATF6 target genes.
U2-OS cells were obtained from the American Type Culture Collection (ATCC HTB-96, ATCC Manassas, VA) and were cultured with growing medium containing Dulbecco's Modified Eagle's Medium (DMEM) (Cat. No.: SH30023.02, HyClone) supplemented with fetal bovine serum (FBS) 10% (Cat. No.: 16000044, Gibco) and 1% penicillin-streptomycin antibiotic cocktail (Cat. No.: SV30010, Hyclone).
Cignal Lenti ATF6 luc reporter (Qiagen #CLS-6031L) was used to produce a stable cell line in U2-OS cells (U2-OS ATF6 TRE-luciferase reporter). The lenti ATF6 reporter is a preparation of replication incompetent, VSV-g pseudotyped lentivirus particles expressing the firefly luciferase gene under the control of a minimal (m)CMV promoter and tandem repeats of the ATF6 transcriptional response element (TRE). The number of response elements as well as the intervening sequence between response elements has been experimentally optimized to maximize the signal to noise ratio.
Exemplary compounds of the invention and reference compounds were prepared from powder as 10 mM stock solutions in dimethyl sulfoxide (DMSO; Cat. No. #D2650, Sigma Aldrich) and stored at −80° C. in presence of N2 neutral atmosphere.
For the primary screening, 40,000 U2-OS ATF6 TRE-luciferase reporter cells were plated in poly-D-lysine (Cat. No.: P2636, Sigma) pre-coated white 96-well plates (Thermo Scientific Nunc #136101) with 100 μL of growing medium. Cells were incubated in humidified chambers for 24 hr.
For testing exemplary compounds in presence of ER-stress, cells were pre-treated for 30 min with 50 μL growing medium containing either vehicle (DMSO), 1 or 10 μM test compound. After this pre-incubation, 50 μL of a solution containing 0.2 μM of the ER stress-inducer thapsigargin (Tg) was added to the appropriate wells. The Tg solution also contains vehicle or test compounds at 1 or 10 μM as indicated. The final concentration of DMSO in each well was kept at 0.3%. Plates were incubated for 8 hr in humidified chambers.
After the 8 hr incubation, plates were cooled down to room temperature for 10 min prior to the luciferase assays. Luciferase reactions were performed using Luciferase Assay System (Cat. No.: E4550, Promega). Briefly, each well was washed with 100 μl of PBS 1× and, then, 20 μl of lysis reagent was added into each well. Plates were shaken for 10 min and, then, 50 μl of Luciferase Assay Reagent was added to each well. Luminescence was determined by integration of 1 s with a gain of 110 in a Synergy 4 Microplate reader. All measurements were carried out in triplicate.
The average activity determined from the wells containing vehicle only (DMSO, 0% of ATF6 activity) was used as blank and subtracted from the rest of measurements. The average activity determined from the wells containing Tg only was used as 100% of ATF6 activity. The percentage of modulation of exemplary compounds was calculated by normalizing values to potential maximal activation with Tg.
ATF6 activities of exemplary compounds at 1 and 10 μM in presence Tg-induced ER stress tested in the U2-OS ATF6 TRE-luciferase reporter cells were determined and are shown in Table 2-2 and Table 3-2.

SMILES | ATF6 activity @ 1 μM [%] (Table 2-2) | ATF6 activity @ 10 μM [%] (Table 2-2) | activity at 1 µM (Table 2-2) [%] | activity at 10 µM (Table 2-2) [%] | ATF6 activity @ 1 μM [%] (Table 2-3) | ATF6 activity @ 10 μM [%] (Table 2-3)
CC(c1ccc(C(F)(F)F)cc1C(F)(F)F)n1cc(C#Cc2nnc(-c3cnccn3)s2)cn1 (single isomer, unassigned) [Compound 2-22, 2-((1-(1-(2,4-bis(trifluoromethyl)phenyl)ethyl)-1H-pyrazol-4-yl)ethynyl)-5-(pyrazin-2-yl)-1,3,4-thiadiazole] | −− (−− refers to 50% < % activity < 75% at 1 or 10 μM test compound) | − (− refers to 75% < % activity < 100% at 1 or 10 μM) | – | – | – | –
CC(c1ccc(C(F)(F)F)cc1C(F)(F)F)n1cc(C#Cc2nnc(-c3cnccn3)s2)cn1 (centres unmarked) [Compound 2-10, 2-((1-(1-(2,4-bis(trifluoromethyl)phenyl)ethyl)-1H-pyrazol-4-yl)ethynyl)-5-(pyrazin-2-yl)-1,3,4-thiadiazole] | – | – | 50 to 75 | 75 to 100 | – | –
CC(c1ccc(C(F)(F)F)cc1C(F)(F)F)n1cc(C#Cc2nnc(-c3ccccn3)s2)cn1 (centres unmarked) [Compound 2-2, 2-((1-(1-(2,4-bis(trifluoromethyl)phenyl)ethyl)-1H-pyrazol-4-yl)ethynyl)-5-(pyridin-2-yl)-1,3,4-thiadiazole] | – | – | < 50 | < 50 | – | –
Cc1nn(C(C)c2ccc(C(F)(F)F)cc2C(F)(F)F)cc1C#Cc1nnc(-c2ccccn2)s1 (centres unmarked) [Compound 2-11, 2-((1-(1-(2,4-bis(trifluoromethyl)phenyl)ethyl)-3-methyl-1H-pyrazol-4-yl)ethynyl)-5-(pyridin-2-yl)-1,3,4-thiadiazole] | – | – | 50 to 75 | 50 to 75 | – | –
CC(c1ccc(C(F)(F)F)cc1C(F)(F)F)n1cc(/C=C\c2nnc(-c3ccccn3)s2)cn1 (centres unmarked) [Compound 2-8, (Z)-2-(2-(1-(1-(2,4-bis(trifluoromethyl)phenyl)ethyl)-1H-pyrazol-4-yl)vinyl)-5-(pyridin-2-yl)-1,3,4-thiadiazole] | + (+ refers to 100% < % activity < 125% at 1 or 10 μM) | −− (−− refers to 50% < % activity < 75% at 1 or 10 μM test compound) | – | – | – | –
CC(c1ccc(C(F)(F)F)cc1C(F)(F)F)n1cc(C#Cc2nnc(-c3ccccn3)s2)cn1 (centres unmarked) [Compound 2-1, 2-((1-(1-(2,4-bis(trifluoromethyl)phenyl)ethyl)-1H-pyrazol-4-yl)ethynyl)-5-(pyridin-2-yl)-1,3,4-thiadiazole] | −− (−− refers to 50% < % activity < 75% at 1 or 10 μM test compound) | −−− (−−− refers to <50% at 1 or 10 μM test compound) | – | – | – | –
CC(c1ccc(C(F)(F)F)cc1C(F)(F)F)n1cc(CCc2nnc(-c3ccccn3)s2)cn1 (centres unmarked) [Compound 2-9, 2-(2-(1-(1-(2,4-bis(trifluoromethyl)phenyl)ethyl)-1H-pyrazol-4-yl)ethyl)-5-(pyridin-2-yl)-1,3,4-thiadiazole] | – | – | 75 to 100 | < 50 | – | –
O=C(Nc1cnn(Cc2ccc(C(F)(F)F)cc2C(F)(F)F)c1)c1cc(-c2ccco2)on1 [Ceapin-A7, reference compound] | −−− (−−− refers to <50% at 1 or 10 μM test compound) | −−− (−−− refers to <50% at 1 or 10 μM test compound) | – | – | −−− (−−− refers to <50% at 1 or 10 μM test compound) | −−− (−−− refers to <50% at 1 or 10 μM test compound)
Cc1nn(C(C)c2ccc(C(F)(F)F)cc2C(F)(F)F)cc1C#Cc1nnc(-c2ccccn2)s1 (single isomer, unassigned) [Compound 2-24, 2-((1-(1-(2,4-bis(trifluoromethyl)phenyl)ethyl)-3-methyl-1H-pyrazol-4-yl)ethynyl)-5-(pyridin-2-yl)-1,3,4-thiadiazole] | −−− (−−− refers to <50% at 1 or 10 μM test compound) | −−− (−−− refers to <50% at 1 or 10 μM test compound) | – | – | – | –
Cc1nn(C(C)c2ccc(C(F)(F)F)cc2C(F)(F)F)cc1C#Cc1nnc(-c2ccccn2)s1 (single isomer, unassigned) [Compound 2-23, 2-((1-(1-(2,4-bis(trifluoromethyl)phenyl)ethyl)-3-methyl-1H-pyrazol-4-yl)ethynyl)-5-(pyridin-2-yl)-1,3,4-thiadiazole] | − (− refers to 75% < % activity < 100% at 1 or 10 μM) | – | – | 50 to 75 | – | –
FC(F)(F)c1ccc(Cn2cc(C#Cc3nnc(-c4ccccn4)s3)cn2)c(C(F)(F)F)c1 [Compound 2-4, 2-((1-(2,4-bis(trifluoromethyl)benzyl)-1H-pyrazol-4-yl)ethynyl)-5-(pyridin-2-yl)-1,3,4-thiadiazole] | – | – | 50 to 75 | 75 to 100 | – | –
CC(c1ccc(C(F)(F)F)cc1C(F)(F)F)n1cc(C#Cc2nnc(-c3cnccn3)s2)cn1 (single isomer, unassigned) [Compound 2-21, 2-((1-(1-(2,4-bis(trifluoromethyl)phenyl)ethyl)-1H-pyrazol-4-yl)ethynyl)-5-(pyrazin-2-yl)-1,3,4-thiadiazole] | − (− refers to 75% < % activity < 100% at 1 or 10 μM) | – | – | 75 to 100 | – | –
CC(c1ccc(C(F)(F)F)cc1C(F)(F)F)n1cc(/C=C/c2nnc(-c3ccccn3)s2)cn1 (centres unmarked) [Compound 2-5, (E)-2-(2-(1-(1-(2,4-bis(trifluoromethyl)phenyl)ethyl)-1H-pyrazol-4-yl)vinyl)-5-(pyridin-2-yl)-1,3,4-thiadiazole] | – | – | 100 to 125 | < 50 | – | –
CC(c1ccc(C(F)(F)F)cc1C(F)(F)F)n1cc(/C=C\c2nnc(-c3ccccn3)s2)cn1 (centres unmarked) [Compound 2-7, (Z)-2-(2-(1-(1-(2,4-bis(trifluoromethyl)phenyl)ethyl)-1H-pyrazol-4-yl)vinyl)-5-(pyridin-2-yl)-1,3,4-thiadiazole] | + (+ refers to 100% < % activity < 125% at 1 or 10 μM) | − (− refers to 75% < % activity < 100% at 1 or 10 μM) | – | – | – | –
CC(c1ccc(C(F)(F)F)cc1C(F)(F)F)n1cc(/C=C\c2nnc(-c3ccccn3)s2)cn1 (centres unmarked) [Compound 2-6, (Z)-2-(2-(1-(1-(2,4-bis(trifluoromethyl)phenyl)ethyl)-1H-pyrazol-4-yl)vinyl)-5-(pyridin-2-yl)-1,3,4-thiadiazole] | – | −− (−− refers to 50% < % activity < 75% at 1 or 10 μM test compound) | 100 to 125 | – | – | –
